Measured values published in US20100111943A1, “COMPOSITIONS AND METHODS FOR INHIBITING CANCER METASTASIS” (Medical College of Georgia Research Institute, Inc, priority 2007, published 2010).
“Also recorded” adds a separate entry of the source.

Key:
F-hsp90α = experiment: Acetylation of F-hsp90α in HEK293 cells (immunoprecipitation, anti-AcK immunoblot); type: cell-based; details: HEK293 cells with ectopic expression of FLAG (F)-hsp90α
Protocol: Following culture in the plates for 24 hours, cells were transfected by Lipofectamine Plus following the protocol provided by Invitrogen (Carlsbad, Calif.). Transfected cells were cultured in full-medium containing drugs dissolved in DMSO or vehicle for 24 hours. Cellular extracts were prepared by directly adding lysis buffer (25 mM Tris-phosphate, pH 7.8, 2 mM DTT, 2 mM 1,2-diaminocyclohexane-N′,N′,N′,N′-tetraacetic acid, 10% glycerol, 0.2% Triton X-100) to the cells on ice. For immuno-precipitations (IP), 2×10^6 cells in 100 mm dishes were transfected and/or treated as described above. Cellular extracts were prepared and immunoprecipitation performed as described 24. For immunoblotting, cellular extracts or immunoprecipitates were separated on SDS-PAGE, transferred to a nitrocellulose membrane, probed with antibodies, and visualized with enhanced chemiluminescence, as described (Chen, Z., et al., Mol. Pharmacol., 69:1527-33 (2006)).
Hsp90 is acetylated both in vitro and in vivo. […] To determine whether p300 acts as the HAT for hsp90α, following incubation with p300 and acetyl-CoA, in vitro translated hsp90α was analyzed for its acetylation status by Western analysis with anti-AcK antibody. p300 was necessary for the acetylation of hsp90α in the in vitro assay. […] In HEK293 cells, it was determined that p300 can be coimmunoprecipitated with hsp90α. […]

hsp90α [1] = target: T1, hsp90α (Homo sapiens, UniProt P07900); experiment: Biotinylated-geldanamycin (B-GA) binding assay, MDA-MB-468 cell lysates
T1 construct: acetylation of the endogenous hsp90α due to treatment with LBH589; endogenous in cells; host or cells: MDA-MB-468
Protocol: (§1) Biotinylated (B)-GA binding to hsp90 was assessed as described previously 26. Briefly, cell-lysates were incubated with or without 17-AAG (Developmental Therapeutics Branch of CTEP/NCI/NIH) for 1 hour at 4° C., and then incubated with B-GA to displace 17-AAG from hsp90 for another 1 h. GM-bound hsp90 was captured by biotin-GA linked to streptavidin Mutein Matrix (Roche Diagnostics, Indianapolis, Ind.) for 1 h at 4° C. The unbound supernatant was removed and the beads were washed three times with lysis buffer. The precipitates were immunoblotted for hsp90.
Cell lysates containing hsp90α and ATP-sepharose were also incubated with B-GA followed by streptavidin coated agarose beads and eluted proteins were analyzed with anti-F antibody. […] MB-468 cells cultured in DMEM medium containing 10% FBS were treated with the indicated concentration of LBH589 for 16 hours. Following this, cell lysates were incubated with B-GA followed by streptavidin coated agarose beads and eluted proteins were analyzed with anti-hsp90α antibody. Acetylation and expression level of endogenous hsp90 were detected with anti-AcK and anti-hsp90 antibody, respectively.
MB-468 cells ectopically expressing F-hsp90α were treated with 100 nM of LBH589 for 16 hours. Following this, equal amount of cell lysates were incubated with 0, 5, 10 or 50 nM of 17-AAG for 30 min at 4° C., followed by incubation with B-GA and streptavidin-coated agarose beads. Precipitates from streptavidin coated beads were analyzed with anti-F antibody.

K/R mutants of hsp90α = experiment: B-GA binding assay, HEK293 lysates expressing F-hsp90 K/R substitutions
Protocol: as §1
Following treatment with either vehicle or 100 nM of LBH, cell lysates from HEK293 cells expressing F-hsp90 or K/R substitutions were incubated with vehicle or 50 nM of 17-AAG followed by incubation with B-GA and streptavidin coated agarose beads. Precipitates from streptavidin coated beads were analyzed with anti-F antibody.

hsp90α [2] = experiment: Export and extracellular localization of hsp90α from serum-starved T47D cells (immunoblot of medium); type: cell-based
Excerpt: Previous reports have shown that the inducible isoform hsp90α, but not hsp90β, can be secreted and found on the surface of cancer cells, although it lacks the classical signal sequence (Eustace, B. K., et al., Nat Cell Biol., 6:507-14 (2004); Eustace, B. et al., Cell Cycle., 3:1098-1100 (2004)). […] Concentrated extra-cellular medium or cell lysates from T47D cells, which were either serum-starved or cultured in 10% FBS, were immunoblotted with anti-hsp90α antibody. β-actin served as a loading control. Under starvation, both endogenous and exogenous hsp90α are secreted from T47D cells in the acetylated form. Extra-cellular hsp90α was immunoprecipitated with anti-AcK antibody and immunoblotted with either anti-hsp90α or M2 antibody.
To further verify this, the export and extracellular location of acetylation mimetic (K/Q) or acetylation-resistant (K/R) mutants transfected into T47D cells that were cultured under serum-free condition were determined. In serum-starved T47D cells, K/R substitutions at K69, K100 and K558 decrease, while K/Q substitutions increase the level of extracellular hsp90α. Supernatants of serum starved T47D cells transfected with the F-tagged hsp90α mutant constructs K69Q, K100Q, K292Q, K327Q, K478Q, K546Q, and K558Q were concentrated and immunoblotted with anti-F antibody. Coomassie-stained non-specific proteins served as the loading control. […]

MB-231 cells = experiment: In vitro matrigel invasion assay, MB-231 cells; type: cell-based; details: 10, 20, 40 nM LBH589 (FIG. 1A)
Protocol: In vitro invasion assay were performed, as previously described 12, 27 by using the Cultrex® Cell Invasion Assay kit (RandD Systems, Minneapolis, Minn.). In brief, serumstarved cells in 50 μL serum-free medium with or without antibody or IgG were placed in the top chamber and allowed to invade for 24 hours. The lower chambers (assay chamber) were filled with 10% FBS medium. After incubation, migrated cells on the […] chamber of the membrane were dissociated with cell dissociation solution containing Calcein AM at 37° C. for 1 hour and read the bottom plate at 485 nm excitation and 520 nm emission.
The effect of anti-hsp90α with anti-Ac-K69 hsp90α antibody on the in vitro invasiveness of MB-231 breast cancer cells was compared. Serum-starved MB-231 cells treated with 20 μg/mL anti-hsp90α or anti-AcK69 hsp90α antibody were used for determining in vitro matrigel invasion (see Example 4 for protocol). Untreated cells, or cells treated with IgG were used as controls.

[3] = test system: acetylated hsp90α with MMP-2; experiment: Extracellular co-immunoprecipitation of acetylated hsp90α with MMP-2, MDA-MB-231 supernatant; type: cell-based; details: supernatant of serum starved LBH treated MDA-MB-231 cells
Protocol: Supernatant of serum starved LBH treated MDA-MB-231 cells was concentrated and immunoprecipitates with anti-hsp90α antibody were immunoblotted with anti-AcK, anti-MMP-2 or hsp90α antibody. […] Whether increased extracellular location of K69Q, K100Q or K558Q mutant promotes in vitro invasiveness of breast cancer cells was determined. For this, stable transfectants of MB-468 cells expressing the wild-type hsp90α we created, or the K/Q or K/R mutants of hsp90α at the residues K69, K100 and K558, and their in vitro invasiveness in the matrigel-based assay was evaluated.

acetylated hsp90α = experiment: Confocal microscopy of membrane-associated acetylated hsp90α, MB-231 cells; type: cell-based; details: serum-starved MB-231 cells, 40 nM LBH589 for 16 hours, anti-Ac-K69 staining
Protocol: MDA-MB-231 cells were cultured in a chamber slide in RPMI medium with 10% FBS or under serum-free conditions with or without 40 nM LBH589 for 16 hours and stained with anti-acetyl (Ac)-[…] antibody. Briefly, after 16 hours incubation, cells were washed with PBS and fixed with 4% paraformaldehyde for 10 minutes. Following this, the slides were blocked with 3% BSA for 30 minutes and incubated with primary antibody at a dilution of 1:100 in blocking buffer for 2 hours. Following three washes with PBS the slides were incubated in Alexa Fluor 488 anti-rabbit secondary antibody (Molecular probes, Invitrogen) for one hour at 1:3000 dilution. After three washes with PBS, the cells were counterstained with DAPI using Vectashield mountant with DAPI and imaged using Zeiss LSM510 confocal microscope. […] Serum-starved MB-231 cells were treated with 40 nM LBH589 for 16 hours, followed by staining with anti-AcK69 hsp90α antibody and confocal microscopy. Cells cultured in RPMI with 10% FBS and cells stained with rabbit IgG served as controls.

hsp90α [4] = experiment: Acetylation of hsp90α in MB-231 cells (immunoblot with anti-AcK69-hsp90α antibody); type: cell-based; details: MB-231 cells treated with LBH589
Excerpt: Next, a polyclonal antibody was generated against the acetylated K69-containing peptide of hsp90α (anti-Ac-K69). The specificity of the antibody was confirmed by determining its ability to detect the increase in the acetylation of the ectopically expressed […] hsp90α following treatment with the HDAC inhibitor LBH589. MB-231 cells were transfected with F-hsp90α followed by the treatment with LBH589. Immunoprecipitates of F-hsp90α with anti-M2 conjugated beads were immunoblotted with anti-K69-hsp90α antibody for the acetylation status and anti-F antibody for F-hsp90α expression. Cells transfected with empty vector followed the treatment with LBH589 served as control for specificity. Acetylation of endogenous hsp90αinduced by LBH589 was also detected with anti-AcK69-hsp90α antibody. Immunoprecipitates of endogenous hsp90α with anti-hsp90α antibody from cell lysates of MB-231 cells treated with or without LBH589 were immunoblotted with either anti-AcK69-hsp90α or anti-hsp90α (rabbit) antibody. IgG served as the control for specificity of the immunoprecipitates.

Compound | acetylation of F-hsp90α (F-hsp90α) | B-GA binding of hsp90α (hsp90α [1]; MDA-MB-468 cells treated with LBH589 for 16 hours) | 17-AAG binding to acetylated endogenous hsp90 (hsp90α [1]; MDA-MB-468 cells, 100 nM LBH589 for 16 hours, then lysates with 0, 5, 10 or 50 nM 17-AAG) | B-GA binding of K/R mutants of hsp90α (K/R mutants of hsp90α; HEK293 cells, 100 nM LBH) | export and extracellular location of K/R mutants of hsp90α (hsp90α [2]; serum-starved T47D cells transfected with K/R mutants, cotreatment with LBH589) | export and extracellular localization of hyper-acetylated hsp90α (hsp90α [2]; serum-starved T47D cells, 0, 25, 50 or 100 nM LBH589) | matrigel invasion by MB-231 cells (MB-231 cells) | extra-cellular binding of acetylated hsp90α with MMP-2 [3] | levels of membrane associated acetylated hsp90α (acetylated hsp90α) | acetylated hsp90α detected by anti-Ac-K69 hsp90α antibody (hsp90α [4]) | displacement of B-GA binding to hsp90 (hsp90α [1]; lysates incubated with 0, 5, 10 or 50 nM 17-AAG for 30 min at 4° C., cells exposed or unexposed to LBH589) | 17-AAG binding to K/R mutants (displacement of B-GA) (K/R mutants of hsp90α; HEK293 lysates after 100 nM LBH, 50 nM 17-AAG)
Cc1[nH]c2ccccc2c1CCNCc1ccc(/C=C/C(=O)NO)cc1 [LBH589] | hyper-acetylation of F-hsp90α | increase in B-GA binding of hsp90α | promoted 17-AAG binding to the acetylated endogenous hsp90 | increased binding to B-GA | increased the export and extracellular location of K/R mutants of hsp90α to a variable extent; also recorded: promote extracellular localization of K/R mutants of hsp90α | promoted and increased the export and extracellular localization of hyper-acetylated hsp90α; also recorded: occurs in a dose dependent manner | dose dependently increased matrigel invasion | increased extra-cellular binding of acetylated hsp90α with MMP-2 | increased levels of the membrane associated acetylated hsp90α | increase in the acetylated hsp90α | – | –
O=C(CCCCCCC(=O)Nc1ccccc1)NO [vorinostat] | hyper-acetylation of F-hsp90α | – | – | – | – | – | – | – | – | – | – | –
17-allylamino-17-demethoxygeldanamycin [17-AAG] | – | – | – | – | – | – | – | – | – | – | B-GA binding to hsp90 was reduced by 17-AAG treatment | decreased binding of K/R mutants to 17-AAG
